The record followed here is patent US6828315B1, “1-Amino triazoloc4,3-a! quinazoline-5-ones and/or -5-thiones inhibiting phosphodiesterase IV” (Warner-Lambert LLC, priority 1999, dated 2004).

Broadly, the melting point is the temperature, or range, at which the solid turns liquid.

Counter-ions that a name gives are not always drawn.

For the compound `CCN(CC)CCn1c(=O)c2cc(Br)ccc2n2c(N3CCCC3)nnc12` (as salt: HCl) [Compound 69, 7-Bromo-4-(2diethylamino-ethyl)-1-pyrrolidin-1-yl-4H-[1,2,4)triazolo[4,3-a]quinazolin-5-one], the melting point stood at 215 °C.

On to `O=c1c2cc(Br)ccc2n2c(N3CCCC3)nnc2n1Cc1ccc2c(c1)OCO2` (hydrate or solvate) [Compound 53, 4-Benzo[1,3]dioxol-5-ylmethyl-7-bromo-1-pyrrolidin-1-yl-4H-[1,2,4]triazolo[4,3-a]quinazolin-5-one], for which the melting point came out at 194 °C.

As to `O=c1nc2n(Cc3ccc4c(c3)OCO4)nc(N3CCCC3)n2c2ccc(Br)cc12` (hydrate or solvate) [Compound 149, 3-(benzo[1,3]dioxol-5-ylmethyl)-7-bromo-1-(pyrrolidin-1-yl)-3H-[1,2,4]triazolo[4,3-a]quinazolin-5-one], the melting point was 234 °C.

With `O=c1c2ccccc2n2c(N3CCCCCC3)nnc2n1CC=Cc1ccccc1` [Compound 6, 1-Azepan-1-yl-4-(3-phenyl-allyl)-4H-[1,2,4]triazolo[4,3-a]quinazolin-5-one], the melting point was 144 °C.

On to `O=c1c2cc(Cl)ccc2n2c(N3CCCCCC3)nnc2n1Cc1ccccc1Cl` [Compound 9, 1-(azepan-1-yl)-7-chloro-4-(2-chlorobenzyl)-4H-[1,2,4]triazolo[4,3-a]quinazolin-5-one], for which the melting point lay within 160 to 162 °C.

For the compound `O=c1c2cc(Cl)ccc2n2c(N3CCCCCC3)nnc2n1Cc1cccc(Cl)c1` [Compound 10, 1-(azepan-1-yl)-7-chloro-4-(3-chlorobenzyl)-4H-[1,2,4]triazolo[4,3-a]quinazolin-5-one], the melting point was 157 °C.

As to `O=c1c2cc(Cl)ccc2n2c(N3CCCCCC3)nnc2n1Cc1ccc(C(F)(F)F)cc1` [Compound 14, 1-(azepan-1-yl)-7chloro-4-(4-(trifluoromethyl)benzyl)-4H-[1,2,4]triazolo[4,3-a]quinazolin-5-one], the melting point stood at 138 °C.

In turn, `COc1ccccc1Cn1c(=O)c2cc(Cl)ccc2n2c(N3CCCCCC3)nnc12` [Compound 16, 1-(azepan-1-yl)-7-chloro-4-(2-methoxybenzyl)-4H-[1,2,4]triazolo[4,3-a]quinazolin-5-one] yielded a melting point of 98 to 100 °C.

On to `COc1cccc(Cn2c(=O)c3cc(Cl)ccc3n3c(N4CCCCCC4)nnc23)c1` [Compound 17, 1-(azepan-1-yl)-7-chloro-4-(3-methoxybenzyl)-4H-[1,2,4]triazolo[4,3-a]quinazolin-5-one], for which the melting point was determined as 138 °C.

In the case of `COc1ccc(Cn2c(=O)c3cc(Cl)ccc3n3c(N4CCCCCC4)nnc23)cc1` [Compound 18, 1-(azepan-1-yl)-7-chloro-4-(4-methoxybenzyl)-4H-[1,2,4]triazolo[4,3-a]quinazolin-5-one], the melting point was 138 °C.

For the compound `O=c1c2cc(Cl)ccc2n2c(N3CCCCCC3)nnc2n1Cc1ccccn1` [Compound 21, 1-(azepan-1-yl)-7-chloro-4-(2-pyridylmethyl)-4H-[1,2,4]triazolo[4,3-a]quinazolin-5-one], the melting point is 152 °C.

On to `O=c1c2cc(Cl)ccc2n2c(N3CCCCCC3)nnc2n1Cc1ccncc1` [Compound 23, 1-(azepan-1-yl)-7-chloro-4-(4-pyridylmethyl)-4H-[1,2,4]triazolo[4,3-a]quinazolin-5-one], for which the melting point came out at 137 °C.

Compound `COc1ccc(CCn2c(=O)c3cc(Cl)ccc3n3c(N4CCCCCC4)nnc23)cc1` [Compound 25, 1-(azepan-1-yl)-7-chloro-4-[2-(4-methoxyphenyl)ethyl]-4H-[1,2,4]triazolo[4,3-a]quinazolin-5-one] displayed a melting point of 136 °C.

As to `O=C(Cn1c(=O)c2cc(Cl)ccc2n2c(N3CCCCCC3)nnc12)c1ccccc1` [Compound 27, 1-Azepan-1-yl-7-chloro-4-(2-oxo-2-phenyl-ethyl)-4H-[1,2,4]triazolo[4,3-a]quinazolin-5-one], the melting point is 105 to 107 °C.
